Results from patent publication US7285701B2, “Cyanobacterial nucleic acid fragments encoding proteins useful for controlling plant traits via nuclear or plastome transformation” (BASF Plant Science GmbH, priority 2001, dated 2007).

Legend:
Anabaena PCC7120 = experiment: In vivo growth in BG-11 media with commercial herbicides; format: cell-based; conditions: 100 μM, one week of culture in BG-11 media
Description: (§1) In vivo resistance of cyanobacteria to PURSUIT® imazethapyr and OUST® sulfometuron methyl. As a preliminary matter, Synechocystis PCC6803 and Anabaenia PCC7120 were tested for susceptibility to PURSUIT® imazethapyr and OUST® sulfometuron methyl. AHAS genes which are resistant to these herbicides are excellent candidates for transformation in plant plastomes and nuclear genomes. Such transformants can be used in a weed control strategy using a combination of transgenic herbicide resistant crops and herbicides.
(§2) In vivo testing of Synechocystis PCC6803 and Anabaena PCC7120 was done by culturing the organisms in varying concentrations of the commercial herbicides. […] For relative comparison purposes a concentration of 1 μM PURSUIT® imazethapyr in agar media is lethal to Arabidopsis plants.

Synechocystis PCC6803 = experiment: as above; format: cell-based; conditions: 100 μM, one week of culture in BG-11 media
Description: as §1, §2

[1] = tested on: E. coli M1262 expressing the cyanobacterial ahas gene; experiment: Growth on minimal media of E. coli M1262 expressing the cyanobacterial ahas gene; format: cell-based
Excerpt: To confirm that these plasmids carry functional AHAS sequences, plasmid DNA from each of the ten rescued colonies was transformed into the E. coli strain M1262. (leuB6, ilv1614, ilvH612, λ^−, relA1, spoT1, ilvB619, ilvG603, ilfG605(am), thi-1) (Genetics Stock Center, Yale University). This strain of E. coli is lacking in AHAS. […] The ahas gene can therefore be used for achieving herbicide tolerance in crops by transformation into the nuclear or plastidic genome.

[2] = tested on: p111 and p112 transplastomic tobacco lines; experiment: PURSUIT imazethapyr spray test, p111 and p112 lines; format: in vivo; conditions: 18 g/ha, 5 weeks after the test
Description: (§3) Observations and photos (FIG. 8) of the PURSUIT® imazethapyr spray test were taken 5 weeks after the test was conducted. […] Leaves assumed a thin, spiny form.

Anabaena AHAS = experiment: In vitro AHAS assay; format: biochemical, Anabaena PCC7120; conditions: 100 μM
Description: (§4) AHAS is the target site of both PURSUIT® imazethapyr and OUST® sulfometuron methyl herbicides. To determine if resistance to the herbicides is due to a natural resistance to inhibition of the acetohydroxyacid synthase enzymes from the cyanobacteria, or if it is due to alternative mechanisms (e.g. lack of entry into the cell), the in vitro activity of the AHAS enzyme in the presence of the herbicides was tested.
(§5) AHAS assays were performed with slight modification as described by Singh et. al (Singh B K, Stidham M A, Shaner D L, 1988, Assay for acetohydroxyacid synthase from plants. Anal Biochem 171: 173-179).
(§6) Synechocystis PCC6803 and Anabaena PCC7120 were cultured in 1.5 L of BG-11 media. Cells were collected by centrifuge and stored frozen at −80° C. Frozen cells were thawed and placed in a 30 mL Bead Beater cell disruptor chamber (BioSpec Corp Bartlesville, Okla.). Seven mL of acid washed sand was added. The chamber was filled with 2× ASHA assay buffer, consisting of 100 mM HEPES pH7.0, 200 mM pyruvate, 20 mM MgCl2, 2 mM TPP (Thiamine pyrophosphate) and 100 μM FAD (flavin adenine dinucleotide).
(§7) The Bead Beater cell disruptor was packed in ice and turned on for 10 seconds, followed by cooling for 3 minutes. This cycle was repeated five times. The extract was transferred into a centrifuge tube, and spun in a Beckman SA20 (Beckman, Fullerton, Calif.) rotor for 15 minutes at 17,000 rpms. […]

Synechocystis AHAS = experiment: In vitro AHAS assay; format: biochemical, Synechocystis PCC6803; conditions: 100 μM
Description: as §4, §5, §6, §7

[3] = tested on: AHAS enzyme of pACBC222 line G-981208-1.1; experiment: AHAS enzyme assay of transplastomic tobacco line; format: biochemical; conditions: line sprayed with 18 g/ha PURSUIT imazethapyr; assay in the presence of the herbicide
Arabidopsis plants = experiment: Lethality to Arabidopsis plants in agar media; format: in vivo
Description: as §2

Wild type (W-38) tobacco = experiment: PURSUIT imazethapyr spray test, wild type tobacco; format: in vivo; conditions: 18 g/ha, 5 weeks after the test
Description: as §3

p116 line G-981208-1.1 = experiment: PURSUIT imazethapyr spray test, p116 line; format: in vivo, tobacco
Description: as §3

Compound: CCc1cnc(C2=NC(C)(C(C)C)C(=O)N2)c(C(=O)O)c1 (stereo not shown) [PURSUIT® imazethapyr, imazethapyr]
- inhibition of growth (Anabaena PCC7120): No inhibition of growth
- inhibition of growth (Synechocystis PCC6803): No inhibition of growth
- growth on minimal media in the presence of the herbicide [1]: capable of growing
- spray test observation [2]: wide-spread leaf necrosis and stunting of growth
- inhibition of AHAS enzyme (Anabaena AHAS): No significant inhibition
- inhibition of AHAS enzyme (Synechocystis AHAS): No significant inhibition
- increase in AHAS enzyme resistance compared with AHAS enzyme from unsprayed wild type tobacco [3]: ~20%
- concentration lethal to Arabidopsis plants (Arabidopsis plants): 1 µM
- spray test observation (Wild type (W-38) tobacco): wide-spread leaf necrosis and stunting of growth
- growth (p116 line G-981208-1.1; 18 g/ha, 5 weeks after the test): uninhibited
- leaf damage (p116 line G-981208-1.1; 18 or 35 g/ha, 5 weeks after the test): no visible leaf damage
- growth (p116 line G-981208-1.1; 35 g/ha, 5 weeks after the test): slight stunting
- effect on new shoots and morphology (p116 line G-981208-1.1; p116 line, prolific shooting and morphological abnormalities in new shoots): strong growth regulator
